Data: patent publication US20240325334A1, “COMPOSITION FOR GENERATING NITROGEN MONOXIDE” (SEOUL NATIONAL UNIVERSITY R&DB FOUNDATION, priority 2021, published 2024)

Assay: NO generation experiment: compound reacted with H2O2 in the presence of a catalyst, Griess assay
Details: compound 1 mg/ml, PBS pH 5.5, 1 mM H2O2, 37° C., 4 hours
Method: Generation of nitric oxide was investigated by reacting the above-described compounds having a structure of
with hydrogen peroxide (H2O2) in the presence of a catalyst. After suspending particles including 1 mg/ml of the compound below and the catalyst in a medium composed of 5 ml of PBS at pH 5.5 and hydrogen peroxide (H2O2) at 1 mM concentration, the suspension was subjected to incubation at 37° C. for 4 hours, followed by sampling the supernatant to analyze the NO generation through Griess assay.

## N=C(N)NCCC[C@H](NC(=O)OCc1ccccc1)C(=O)O [Nα-Benzyloxycarbonyl-L-arginine]
Catalyst Mn-porphyrin 2 mg/ml
  Concentration of generated NO: 34 µM
Catalyst PCN-223-Fe 1 mg/ml
  Concentration of generated NO: 216 µM
